Test results: patent US20170362590A1, “PHARMACEUTICAL COMPOSITIONS COMPRISING MICRORNA” (OREGON HEALTH & SCIENCE UNIVERSITY, priority 2016, published 2017)

Assays:
[1] = system: HUVEC; experiment: 3-D angiogenic sprouting assay (fibrin bead); format: cell-based; conditions: 3D-fibrinogen assay, co-culture with human aortic smooth muscle cells
Method: Early passage HUVECs were coated on cytodex-3 (GE Healthcare) beads at a density of 10 million cells/40 μl beads and incubated in suspension for 3-4 hours with gentle mixing every hour. They were plated on TC treated 6 well dishes overnight and resuspended in a 2 mg/ml fibrin gel with 200,000 human smooth muscle cells. The gel was allowed to polymerize and complete EGM-2 media was added. Sprouts were visualized from days 3-4 via confocal imaging after overnight incubation with FITC labeled Ulex europaeus lectin (Vector labs). Immunofluorescence imaging was performed on a Yokogawa CSU-W1 spinning disk confocal microscope with 20 0.45 Plan Fluor objective (Nikon).

[2] = system: VEGF-early gene signature; experiment: VEGF-early response gene expression; format: cell-based, human; conditions: HUVEC, VEGF 50 ng/ml
Method: HUVECs were transfected for a total of 48 hours. At 24 hours cells were starved overnight and then treated 3 hours with VEGF (50 ng/ml). Graphs depict mean mRNA levels+SEM.
(§1) Total RNA and microRNA were isolated using miRVana microRNA isolation kit (Ambion). Reverse transcription was performed using TaqMan™ Advanced cDNA Synthesis Kit (Life Tech) according to the manufacture instructions. RT-PCR was performed using multiplexed TaqMan primers (Applied Biosystems). The relative quantification of gene expression was determined using the 2-DDCtmethod. Using this method, we obtained the fold changes in gene expression normalized to an internal control gene, GAPDH or U6 snRNA, respectively. A DNA damage array (LifeTech) was used for targeting analysis and a Human Cellular Senescence array (SA Biosciences) was used for senescence phenotype profiling.

[3] = system: HUVEC; experiment: β-Gal senescence assay; format: cell-based, human; conditions: for senescence (β-galactosidase positive cells): 48 hours after transfection, relative to controls
From the text: After this time cells were washed whit cold PBS and then stain for β-galactosidase activity following manufacture protocol (Senescence Cells Histochemical Staining Kit, Sigma).

[4] = system: HUVEC; experiment: HUVEC apoptosis; format: cell-based, human; conditions: overexpression for 48 hours
[5] = system: ERK; experiment: VEGF-dependent ERK phosphorylation (western blot); format: cell-based, human; conditions: HUVECs treated with VEGF (10 min)
[6] = system: HUVEC; experiment: HUVEC cell proliferation assay; format: cell-based, human
[7] = system: 3'-UTRs of MRE11a, RAD50, and NBN; experiment: 3'-UTR luciferase reporter assay in HEK-293T cells; format: cell-based, human; conditions: 24 hours cotransfection
Method: To determine targets of miR-99b and miR-494, the RNAs were ectopically expressed in HUVECs. Targets were analyzed using a DNA damage array 24 hours after transfection. Three common targets for miR-99b and miR-494 were identified: MRE11a, RAD50 and NBN. These three proteins form the MRN complex which is involved in homologous repair and non-homologous end joining. mRNA targets of miR-494 and miR-99b were also assessed using a miR-TRAP assay. […] Finally, the 3′-UTRs of MRE11a, RAD50, and NBN were cloned into luciferase reporter vectors. The luciferase vectors were contrasfected with miR-494 and miR99b into HEK-293T cells for 24 hours.
MRE11a Luciferase-3-UTR plasmid was purchased from SwitchGear Genomics. RAD50 and NBN luciferase constructs were purchased as pmiR-REPORT vector (Ambion). Luciferase assay reagents were purchased from Switch Gear Genomics and Promega.
Cells were transfected at 50-60% confluence using standard forward transfection protocols using RNAimax reagent (Life Technologies) for miRs/siRNAs and Lipofectamine 2000 for plasmid or plasmid RNA dual transfections. Typically 50 nM RNA and […] plasmid DNA were used for transfections. Target protectors were transfected at a concentration of 50 nM or equivalent to the miR amounts.

[8] = system: CD44; experiment: CD44 expression (Human Senescence gene array); format: cell-based; conditions: HUVEC
Method: as §1
CD44 expression was analyzed by flow cytometry in HUVECs transfected with miR-494 for 48 hours. Cells were washed in PBS and tripsinazed. Cells were incubated in blocking solution (0.5% BSA/10% goat serum) for 30 min and 1 hour in primary antibody-PEcy7 conjugated (CD44, BD, 560533) prepared in blocking solution. Then cells were washed in PBS 3×. Cells were analyzed in a CANTOII equipment.

[9] = system: MRE11a, RAD50 and NBN; experiment: Target validation in HUVEC (Western blot, qPCR); format: cell-based, human; conditions: qPCR and immunofluorescence
Method: After treatment, cells were washed in phosphate-buffered saline (PBS) and prepared in RIPA lysis buffer (Sigma) supplemented with Complete Protease inhibitor cocktail (ROCHE) and Phosphatase inhibitors cocktail 2 and 3 (Sigma). Cells were harvested by scraping, and proteins were analyzed by Western blot. Equivalent amounts of protein were loaded on a 4-12% gradient SDS-polyacrylamide gel (BioRAD) and transferred for 30 min to a TransBlot turbo (BioRAD) nitrocellulose membrane. Membranes were blocked in 5% milk or 3% BSA and incubated with antibodies as indicated: Mre11a (Cell Signaling, 4847, 1:1000), RAD50 (Cell Signaling, 3427, 1:1000), NBS1 (Cell Signaling, 14956, 1:500), p-ATM (Cell Signaling, 4526, 1:500), H2AX (Abcam 11174, 1:500), p21 (Cell Signaling, 2947, 1:1000), P-Rb (Cell Signaling, 9301, 1:500), ERK1/2 (Cell Signaling, 9102, 1:1000), P-ERK1/2 (9101, 1:1000). β-actin (Sigma, A5316, 1:10,000 1 h RT) was used as housekeeping controls for the total levels of protein loaded. Membranes were washed in TBST and incubated with secondary antibodies from Licor Biosciences were used goat anti mouse 925-68020 (1:15,000) and goat anti rabbit 925-32211 (1:15,000). […]
Total RNA and microRNA were isolated using miRVana microRNA isolation kit (Ambion). […] The relative quantification of gene expression was determined using the 2-DDCtmethod. […]

[10] = system: p21; experiment: Western blot of p21 in HUVEC; format: cell-based, human; conditions: HUVEC expressing the miRNAs
Method: After treatment, cells were washed in phosphate-buffered saline (PBS) and prepared in RIPA lysis buffer (Sigma) supplemented with Complete Protease inhibitor cocktail (ROCHE) and Phosphatase inhibitors cocktail 2 and 3 (Sigma). Cells were harvested by scraping, and proteins were analyzed by Western blot. Equivalent amounts of protein were loaded on a 4-12% gradient SDS-polyacrylamide gel (BioRAD) and transferred for 30 min to a TransBlot turbo (BioRAD) nitrocellulose membrane. Membranes were blocked in 5% milk or 3% BSA and incubated with antibodies as indicated: Mre11a (Cell Signaling, 4847, 1:1000), RAD50 (Cell Signaling, 3427, 1:1000), NBS1 (Cell Signaling, 14956, 1:500), p-ATM (Cell Signaling, 4526, 1:500), H2AX (Abcam 11174, 1:500), p21 (Cell Signaling, 2947, 1:1000), P-Rb (Cell Signaling, 9301, 1:500), ERK1/2 (Cell Signaling, 9102, 1:1000), P-ERK1/2 (9101, 1:1000). β-actin (Sigma, A5316, 1:10,000 1 h RT) was used as housekeeping controls for the total levels of protein loaded. Membranes were washed in TBST and incubated with secondary antibodies from Licor Biosciences were used goat anti mouse 925-68020 (1:15,000) and goat anti rabbit 925-32211 (1:15,000). Blots were scanned on the Licor Odyssey scanner according to manufacturer's instructions.

[11] = system: telomerase activity in HUVEC; experiment: Telomerase activity assay; format: cell-based, human; conditions: 48 hours of ectopic expression
Method: […] Cells were lysed and processed according to the manufacturer's instructions (Quantitative Telomerase Detection Kit, Allied Biotech). The telomerase activity in the cell extract was determined through its ability to synthesize telomeric repeats onto an oligonucleotide substrate. The resulting products were subsequently amplified using the polymerase chain reaction (PCR).

[12] = system: MRE11a, RAD50, and NBN mRNAs; experiment: miR-TRAP/RISC TRAP assay; format: cell-based; conditions: 293 T cells, 24 hours
Method: 293 T cells were co-transfected with a plasmid coding for a flag-tagged dominant negative […] mutant (Clontech) along with a control mimic, miR-99b or miR-494 mimic according to kit instructions. Twenty-four hours later the RNA protein complexes were crosslinked and the RISC complex was immunoprecipitated using an anti-FLAG antibody and RNA was isolated for quantitative real-time PCR of target genes. The fold enrichment was calculated using pre and post IP controls as well as normalization to the control mimic pull-downs.

Compound | sprouting angiogenesis [1] | sprouting angiogenesis ([1]; listed as miR-99b-5p) | specific-VEGF-early gene signature [2] | senescence (β-galactosidase positive cells) ([3]; HUVEC) | senescence (β-galactosidase positive cells) ([3]; HUVEC, listed as miR-99b-5p) | senescence phenotype in old HUVECs ([3]; high-passage HUVEC, β-galactosidase assay) | apoptosis [4] | phosphorylation of ERK [5] | proliferation relative to controls ([6]; HUVEC, overexpression for 48 hours) | proliferation in old HUVECs ([6]; high-passage HUVEC) | luciferase expression from 3'-UTR reporter vectors [7] | expression of CD44, a marker of senescence [8] | protein expression of target mRNAs (MRE11a, RAD50, NBN) [9] | expression of cell cycle regulator p21 [10] | telomerase activity [11] | telomerase activity ([11]; listed as miR-99b-5p) | enrichment of target mRNAs in RISC pulldown relative to controls [12] | senescence ([3]; HUVEC, 50 uM, after 24 hours)
miR-99b: Human miR-99b-5p (SEQ ID NO: 3), used as miR mimic (sense CACCCGUAGAACCGACCUUGCG; listed as RNA, chemistry not given here; listed as Homo sapiens) | inhibited sprouting angiogenesis | inhibit sprouting angiogenesis | block a specific-VEGF-early gene signature | higher number of β-galactosidase positive cells | lead to endothelial senescence | restored a senescence phenotype | no effect on apoptosis | lower rate of phosphorylation of ERK | less proliferation | without dramatically changing proliferation | Significantly less luciferase expression | induced expression of CD44 | Blocking of protein expression | greater expression | Impaired telomerase activity | impairing telomerase function | only MRE11a was enriched | –
N=C1NC(=O)/C(=C/c2ccc(O)cc2)S1 [Mirin-1, reference compound] | – | – | – | – | – | – | – | decreased ERK phosphorylation | – | – | – | – | – | – | – | – | – | induce senescence
miR-21-3p: Human miR-21-3p (SEQ ID NO: 2), used as miR mimic (sense CAACACCAGUCGAUGGGCUGU; listed as RNA, chemistry not given here; listed as Homo sapiens) | inhibit sprouting angiogenesis | – | – | lead to endothelial senescence | – | – | – | – | – | – | – | – | – | – | impairing telomerase function | – | – | –
